Experimental data from US11633416B1, “Oral formulations of CD73 compounds” (ARCUS BIOSCIENCES, INC., priority 2020, dated 2023).
Read-outs that look alike come from different tables or passages of the source.

Assay: Oral exposure in cynomolgus monkeys, compound alone or with excipient in capsules; plasma by LC-MS/MS
Type: in vivo
Conditions: enteric capsule; for MRT inf: read-out: MRT0-∞
Source text: The influence of different excipients on the bioavailability of Compound (Ia), Compound 2 and Compound 3 in cynomolgus monkeys was investigated. The excipients tested were sodium phytate, sodium citrate, sodium EDTA, cyclodextrin, sodium taurocholate, sodium polystyrene sulfate, sodium caprate, sodium phosphate, carbomer 971P and palmitoyl carnitine chloride. Generally, an appropriate quantity (as indicated in Table 1) of Compound (Ia), Compound 2 or Compound 3 and an excipient were mixed to homogeneity and transferred to capsules for dosing. In one example, Compound (Ia) (500 mg assay, 1.063 correction factor applied for to account for purity) and 2.75 g of sodium phytate (Sigma) were combined in a mortar and pestle. The mixture was ground to homogeneity then 530 mg of the white powder was transferred to enteric capsules (Size 0) prior to dosing.
[…] Compound (Ia), Compound 2 or Compound 3, either alone, or with excipient, in an enteric capsule was administered via an oral pet piller. Blood samples were collected from a peripheral vessel at designated time points, and centrifuged to obtain plasma.
Plasma samples obtained at each time point from the subjects were prepared by protein precipitation. An aliquot of 50 μL sample was added with 150 μL acetonitrile containing an internal standard ([[[(2R,3S,4R,5R)-5-[6-chloro-4-[[(1S)-2,2,2-trideuterio-1-(2-fluorophenyl)ethyl]amino]pyrazolo[3,4-b]pyridin-1-yl]-3,4-dihydroxyoxolan-2-yl]-dideuteriomethoxy]-hydroxyphosphoryl]methylphosphonic acid, 200 ng/mL in Acetonitrile). The mixture was vortexed for 15 min and then centrifuged at 4500 rpm for 15 min at 4° C. (Sorvall Legend XTR centrifuge, Thermo Scientific, Langenselbold, Germany). 80 μL of the resulting supernatant was transferred into a new plate and mixed with 160 μL water followed by LC-MS/MS analysis.
• API 4000 mass spectrometer (Applied Biosystems, Foster City, Calif.) • Shimadzu Nexera X^2 UHPLC System (Shimadzu Scientific Instruments, Canby, Oreg.) Column: SHISEIDO CAPCELL PAK INERT ADME S3 (2.00 mm×50 mm, Part No. 79001) Mobile Phase A: 8.6 mM Triethylamine, 100 mM HFIP (1,1,1,3,3,3-Hexafluoro-2-propanol) in Water Mobile Phase B: 8.6 mM Triethylamine, and 100 mM HFIP in [Acetonitrile:water (95:5, v/v) Needle wash (weak & strong): Acetone:MeCN:Water (80:20:20, v/v/v) Flow Rate: 0.50 mL/min HPLC Gradient:
• Ionization Mode: Electrospray (ESI) • Detection Mode: Negative MRM (Q1/Q3 transitions: m/z 579.0/157.0 for Compound (Ia) or Compound 3; m/z 584.0/157.0 for Internal Standard); (Q1/Q3 transitions m/z 562.2/157.0 for Compound 2; m/z 584.0/157.0 for Internal Standard)

[1] = male, cynomolgus monkey, plasma, po, 50 mg, Table 2: oral, dose 50 mg, + 275 mg sodium phytate
[2] = male, cynomolgus monkey, plasma, po, 50 mg, Table 2: oral, dose 50 mg, neat
[3] = oral, dose 50 mg, with 275 mg sodium phytate (Sigma-Aldrich, ≥5 mol sodium/mol), fasted

## C[C@H](Nc1cc(Cl)nc2c1cnn2[C@@H]1O[C@H](COP(=O)(O)CP(=O)(O)O)[C@@H](O)[C@H]1O)c1ccccc1F [Ia (•3Na), (((((2R,3S,4R,5R)-5-(6-chloro-4-(((S)-1-(2-fluorophenyl)ethyl)amino)-1H-pyrazolo[3,4-b]pyridin-1-yl)-3,4-dihydroxytetrahydrofuran-2-yl)methoxy)(hydroxy)phosphoryl)methyl)phosphonic acid]
Table 2: oral, dose 50 mg, + 275 mg sodium phytate versus neat
  Exposure Enhancement: 9.1-fold
male, cynomolgus monkey, plasma, po, 10 mg, with 195 mg sodium citrate, 6 mg SDS, fasted
  AUC(0-inf): 1940 ng·h/mL
male, cynomolgus monkey, plasma, po, 10 mg, oral, dose 10 mg, with 195 mg sodium citrate, 6 mg SDS, fasted, read-out: Cmax
  Cmax: 286 ng/mL
[1]
  AUC(0-inf): 122000 ng·h/mL
  AUC(0-t): 88000 ng·h/mL
  Tmax: 3 h
  MRT inf: 35.8 h
male, cynomolgus monkey, plasma, po, 50 mg, Table 2: oral, dose 50 mg, + 275 mg sodium phytate, read-out: Cmax
  Cmax: 3680 ng/mL
[2]
  AUC(0-inf): 13400 ng·h/mL
  AUC(0-t): 10300 ng·h/mL
  Tmax: 1.75 h
  MRT inf: 29.2 h
male, cynomolgus monkey, plasma, po, 50 mg, Table 2: oral, dose 50 mg, neat, read-out: Cmax
  Cmax: 631 ng/mL
male, cynomolgus monkey, plasma, po, 50 mg, neat, fasted
  AUC(0-inf): 13400 ng·h/mL
male, cynomolgus monkey, plasma, po, 50 mg, with 25 mg sodium taurocholate, fasted
  AUC(0-inf): 9300 ng·h/mL
male, cynomolgus monkey, plasma, po, 50 mg, with 50 mg sodium phytate (Sigma-Aldrich), fasted
  AUC(0-inf): 59700 ng·h/mL
male, cynomolgus monkey, plasma, po, 50 mg, with 100 mg Na-EDTA, fasted
  AUC(0-inf): 154000 ng·h/mL
male, cynomolgus monkey, plasma, po, 50 mg, with 100 mg cyclodextrin, fasted
  AUC(0-inf): 8230 ng·h/mL
male, cynomolgus monkey, plasma, po, 50 mg, with 100 mg palmitoyl carnitine chloride, fasted
  AUC(0-inf): 43400 ng·h/mL
male, cynomolgus monkey, plasma, po, 50 mg, with 195 mg sodium citrate, 3 mg SDS, fasted
  AUC(0-inf): 22200 ng·h/mL
male, cynomolgus monkey, plasma, po, 50 mg, with 195 mg sodium citrate, 6 mg SDS, non-fasted animal
  AUC(0-inf): 16500 ng·h/mL
male, cynomolgus monkey, plasma, po, 50 mg, with 195 mg sodium citrate, 6 mg sodium dodecyl sulfate (SDS), fasted
  AUC(0-inf): 38300 ng·h/mL
male, cynomolgus monkey, plasma, po, 50 mg, with 227.5 mg sodium caprate, fasted
  AUC(0-inf): 20300 ng·h/mL
male, cynomolgus monkey, plasma, po, 50 mg, with 275 mg sodium phytate (Sigma-Aldrich, ≥5 mol sodium/mol), fasted
  AUC(0-inf): 109000 ng·h/mL
male, cynomolgus monkey, plasma, po, 50 mg, with 275 mg sodium phytate, dodecasodium, fasted
  AUC(0-inf): 69400 ng·h/mL
male, cynomolgus monkey, plasma, po, 50 mg, with 275 mg sodium phytate, hexasodium, fasted
  AUC(0-inf): 152000 ng·h/mL
male, cynomolgus monkey, plasma, po, 50 mg, with 325 mg sodium polystyrene sulfate, fasted
  AUC(0-inf): 41400 ng·h/mL
male, cynomolgus monkey, plasma, po, 50 mg, with 400 mg sodium phosphate, fasted
  AUC(0-inf): 20500 ng·h/mL
male, cynomolgus monkey, plasma, po, 50 mg, with 7% w/w carbomer 971P, fasted
  AUC(0-inf): 41300 ng·h/mL
male, cynomolgus monkey, plasma, po, 50 mg, oral, dose 50 mg, neat, fasted, read-out: Cmax
  Cmax: 631 ng/mL
male, cynomolgus monkey, plasma, po, 50 mg, oral, dose 50 mg, with 25 mg sodium taurocholate, fasted, read-out: Cmax
  Cmax: 455 ng/mL
male, cynomolgus monkey, plasma, po, 50 mg, oral, dose 50 mg, with 50 mg sodium phytate (Sigma-Aldrich), fasted, read-out: Cmax
  Cmax: 1650 ng/mL
male, cynomolgus monkey, plasma, po, 50 mg, oral, dose 50 mg, with 100 mg Na-EDTA, fasted, read-out: Cmax
  Cmax: 6840 ng/mL
male, cynomolgus monkey, plasma, po, 50 mg, oral, dose 50 mg, with 100 mg cyclodextrin, fasted, read-out: Cmax
  Cmax: 526 ng/mL
male, cynomolgus monkey, plasma, po, 50 mg, oral, dose 50 mg, with 100 mg palmitoyl carnitine chloride, fasted, read-out: Cmax
  Cmax: 3660 ng/mL
male, cynomolgus monkey, plasma, po, 50 mg, oral, dose 50 mg, with 195 mg sodium citrate, 3 mg SDS, fasted, read-out: Cmax
  Cmax: 922 ng/mL
male, cynomolgus monkey, plasma, po, 50 mg, oral, dose 50 mg, with 195 mg sodium citrate, 6 mg SDS, non-fasted animal, read-out: Cmax
  Cmax: 863 ng/mL
male, cynomolgus monkey, plasma, po, 50 mg, oral, dose 50 mg, with 195 mg sodium citrate, 6 mg sodium dodecyl sulfate (SDS), fasted, read-out: Cmax
  Cmax: 1520 ng/mL
male, cynomolgus monkey, plasma, po, 50 mg, oral, dose 50 mg, with 227.5 mg sodium caprate, fasted, read-out: Cmax
  Cmax: 912 ng/mL
male, cynomolgus monkey, plasma, po, 50 mg, oral, dose 50 mg, with 275 mg sodium phytate (Sigma-Aldrich, ≥5 mol sodium/mol), fasted, read-out: Cmax
  Cmax: 3570 ng/mL
male, cynomolgus monkey, plasma, po, 50 mg, oral, dose 50 mg, with 275 mg sodium phytate, dodecasodium, fasted, read-out: Cmax
  Cmax: 2970 ng/mL
male, cynomolgus monkey, plasma, po, 50 mg, oral, dose 50 mg, with 275 mg sodium phytate, hexasodium, fasted, read-out: Cmax
  Cmax: 4440 ng/mL
male, cynomolgus monkey, plasma, po, 50 mg, oral, dose 50 mg, with 325 mg sodium polystyrene sulfate, fasted, read-out: Cmax
  Cmax: 1420 ng/mL
male, cynomolgus monkey, plasma, po, 50 mg, oral, dose 50 mg, with 400 mg sodium phosphate, fasted, read-out: Cmax
  Cmax: 700 ng/mL
male, cynomolgus monkey, plasma, po, 50 mg, oral, dose 50 mg, with 7% w/w carbomer 971P, fasted, read-out: Cmax
  Cmax: 1480 ng/mL
male, cynomolgus monkey, plasma, po, 100 mg, with 275 mg sodium phytate (Sigma-Aldrich), fasted
  AUC(0-inf): 237000 ng·h/mL
male, cynomolgus monkey, plasma, po, 100 mg, oral, dose 100 mg, with 275 mg sodium phytate (Sigma-Aldrich), fasted, read-out: Cmax
  Cmax: 5760 ng/mL
oral, dose 50 mg, with 50 mg sodium phytate (Sigma-Aldrich), relative to 50 mg Ia ( 3Na) without absorption enhancer
  Exposure Enhancement: 4.5-fold^b
oral, dose 50 mg, with 100 mg Na-EDTA, relative to 50 mg Ia ( 3Na) without absorption enhancer
  Exposure Enhancement: 11.5-fold^b
oral, dose 50 mg, with 100 mg palmitoyl carnitine chloride, relative to 50 mg Ia ( 3Na) without absorption enhancer
  Exposure Enhancement: 3.2-fold^b
oral, dose 50 mg, with 195 mg sodium citrate, 3 mg SDS, relative to 50 mg Ia ( 3Na) neat
  Exposure Enhancement: 1.7-fold
oral, dose 50 mg, with 195 mg sodium citrate, 6 mg SDS, non-fasted animal, relative to 50 mg Ia ( 3Na) without absorption enhancer
  Exposure Enhancement: 1.2-fold^b
oral, dose 50 mg, with 195 mg sodium citrate, 6 mg SDS, relative to 50 mg Ia ( 3Na) without absorption enhancer
  Exposure Enhancement: 2.9-fold^b
oral, dose 50 mg, with 227.5 mg sodium caprate, relative to 50 mg Ia ( 3Na) without absorption enhancer
  Exposure Enhancement: 1.5-fold^b
oral, dose 50 mg, with 275 mg sodium phytate (Sigma-Aldrich), relative to 50 mg Ia ( 3Na) without absorption enhancer
  Exposure Enhancement: 9.1-fold^b
oral, dose 50 mg, with 275 mg sodium phytate (Sigma-Aldrich), relative to 50 mg Ia ( 3Na) without absorption enhancer, listed as Ia ( 3Na)
  Exposure Enhancement: 8.1-fold^b
[3]
  AUC0-∞: 122,000 h*ng/mL
  Cmax: 3,680 ng/mL
oral, dose 50 mg, with 275 mg sodium phytate, dodecasodium, relative to 50 mg Ia ( 3Na) without absorption enhancer
  Exposure Enhancement: 5.2-fold^b
oral, dose 50 mg, with 275 mg sodium phytate, hexasodium, relative to 50 mg Ia ( 3Na) without absorption enhancer
  Exposure Enhancement: 11.4-fold^b
oral, dose 50 mg, with 325 mg sodium polystyrene sulfate, relative to 50 mg Ia ( 3Na) without absorption enhancer
  Exposure Enhancement: 3.1-fold^b
oral, dose 50 mg, with 400 mg sodium phosphate, relative to 50 mg Ia ( 3Na) without absorption enhancer
  Exposure Enhancement: 1.9-fold^b
oral, dose 50 mg, with 7% w/w carbomer 971P, relative to 50 mg Ia ( 3Na) without absorption enhancer
  Exposure Enhancement: 3.1-fold^b
